Assays:
[1] = system: Staphylococcus aureus ATCC 6538; experiment: Chlorine equivalence test; format: cell-based; set-up: key to growth of organism, Subculture Series 8 / growth of organism, Subculture Series 9 / growth of organism, Subculture Series 10 / growth of organism, Subculture Series 1 / growth of organism, Subculture Series 2 / growth of organism, Subculture Series 3 / growth of organism, Subculture Series 4 / growth of organism, Subculture Series 5 / growth of organism, Subculture Series 6 / growth of organism, Subculture Series 7: growth of organism (+); no growth of organism (0); conditions: for growth of organism, Subculture Series 1 / growth of organism, Subculture Series 2 / growth of organism, Subculture Series 3 / growth of organism, Subculture Series 4 / growth of organism, Subculture Series 5 / growth of organism, Subculture Series 6 / growth of organism, Subculture Series 7 / growth of organism, Subculture Series 8 / growth of organism, Subculture Series 9 / growth of organism, Subculture Series 10: Staphylococcus aureus
Description: (§1) The Table 1 sanitizer was tested to determine its efficiency at reducing bacteria on the skin via a chlorine equivalence test. Samples were prepared of Staphylococcus aureus ATCC 6538 (7.6×10^8 colony forming units per mL of text mixture) and Salmonella typhi ATCC 6539 (1.2×10^8 colony forming units per mL of text mixture). The samples were then treated against a NaOCl control at 200 ppm, 100 ppm, and 50 ppm, as well as the sanitizer disclosed herein. Thereafter, ten subculture series were taken.

[2] = system: Salmonella typhi ATCC 6539; experiment: Chlorine equivalence test; format: cell-based; set-up: key to growth of organism, Subculture Series 8 / growth of organism, Subculture Series 9 / growth of organism, Subculture Series 10 / growth of organism, Subculture Series 1 / growth of organism, Subculture Series 2 / growth of organism, Subculture Series 3 / growth of organism, Subculture Series 4 / growth of organism, Subculture Series 5 / growth of organism, Subculture Series 6 / growth of organism, Subculture Series 7: growth of organism (+); no growth of organism (0); conditions: for growth of organism, Subculture Series 1 / growth of organism, Subculture Series 2 / growth of organism, Subculture Series 3 / growth of organism, Subculture Series 4 / growth of organism, Subculture Series 5 / growth of organism, Subculture Series 6 / growth of organism, Subculture Series 7 / growth of organism, Subculture Series 8 / growth of organism, Subculture Series 9 / growth of organism, Subculture Series 10: Salmonella typhi
Description: as §1

`[Na+].[O-]Cl` [NaOCl] was tested. Which “growth of organisms over the ten subculture series” value ([1]; Staphylococcus aureus ATCC 6538, NaOCl control at 200 ppm, 100 ppm, and 50 ppm, ten subculture series) did it give?
Its value is “eventually showed growth of organisms”.

What about the “growth of organism, Subculture Series 1” value ([1]; concentration 50 ppm) of the same compound?
Its value is 0.

What about the “growth of organism, Subculture Series 2” value ([1]; concentration 50 ppm) of the same compound?
The value was “+”.

What about the “growth of organism, Subculture Series 3” value ([1]; concentration 50 ppm) of the same compound?
The value was “+”.

What about the “growth of organism, Subculture Series 4” value ([1]; concentration 50 ppm) of the same compound?
Its value is “+”.

What about the “growth of organism, Subculture Series 5” value ([1]; concentration 50 ppm) of the same compound?
Its value is “+”.

What about the “growth of organism, Subculture Series 6” value ([1]; concentration 50 ppm) of the same compound?
Its value is “+”.

What about the “growth of organism, Subculture Series 7” value ([1]; concentration 50 ppm) of the same compound?
The value was “+”.

What about the “growth of organism, Subculture Series 8” value ([1]; concentration 50 ppm) of the same compound?
Its value is “+”.

And the “growth of organism, Subculture Series 9” value ([1]; concentration 50 ppm)?
The value was “+”.

And the “growth of organism, Subculture Series 10” value ([1]; concentration 50 ppm)?
Its value is “+”.

And the “growth of organism, Subculture Series 1” value ([1]; concentration 100 ppm)?
The value was 0.

And the “growth of organism, Subculture Series 2” value ([1]; concentration 100 ppm)?
Its value is 0.

And the “growth of organism, Subculture Series 3” value ([1]; concentration 100 ppm)?
The value was “+”.

What about the “growth of organism, Subculture Series 4” value ([1]; concentration 100 ppm) of the same compound?
Its value is “+”.

And the “growth of organism, Subculture Series 5” value ([1]; concentration 100 ppm)?
The value was “+”.

What about the “growth of organism, Subculture Series 6” value ([1]; concentration 100 ppm) of the same compound?
Its value is “+”.

What about the “growth of organism, Subculture Series 7” value ([1]; concentration 100 ppm) of the same compound?
Its value is “+”.

And the “growth of organism, Subculture Series 8” value ([1]; concentration 100 ppm)?
The value was “+”.

What about the “growth of organism, Subculture Series 9” value ([1]; concentration 100 ppm) of the same compound?
Its value is “+”.

And the “growth of organism, Subculture Series 10” value ([1]; concentration 100 ppm)?
The value was “+”.

What about the “growth of organism, Subculture Series 1” value ([1]; concentration 200 pm) of the same compound?
The value was 0.

What about the “growth of organism, Subculture Series 3” value ([1]; concentration 200 pm) of the same compound?
The value was 0.

And the “growth of organism, Subculture Series 8” value ([1]; concentration 200 pm)?
The value was “+”.

What about the “growth of organism, Subculture Series 10” value ([1]; concentration 200 pm) of the same compound?
The value was “+”.

What about the “growth of organism, Subculture Series 2” value ([1]; concentration 200 ppm) of the same compound?
Its value is 0.

What about the “growth of organism, Subculture Series 4” value ([1]; concentration 200 ppm) of the same compound?
Its value is 0.

And the “growth of organism, Subculture Series 5” value ([1]; concentration 200 ppm)?
Its value is 0.

What about the “growth of organism, Subculture Series 6” value ([1]; concentration 200 ppm) of the same compound?
The value was “+”.

And the “growth of organism, Subculture Series 7” value ([1]; concentration 200 ppm)?
Its value is “+”.

What about the “growth of organism, Subculture Series 9” value ([1]; concentration 200 ppm) of the same compound?
The value was “+”.

And the “growth of organisms over the ten subculture series” value ([2]; Salmonella typhi ATCC 6539, NaOCl control at 200 ppm, 100 ppm, and 50 ppm, ten subculture series)?
The value was “eventually showed growth of organisms”.

And the “growth of organism, Subculture Series 1” value ([2]; concentration 50 ppm)?
The value was 0.

What about the “growth of organism, Subculture Series 2” value ([2]; concentration 50 ppm) of the same compound?
The value was 0.

And the “growth of organism, Subculture Series 3” value ([2]; concentration 50 ppm)?
The value was “+”.

And the “growth of organism, Subculture Series 4” value ([2]; concentration 50 ppm)?
Its value is “+”.

And the “growth of organism, Subculture Series 5” value ([2]; concentration 50 ppm)?
Its value is “+”.

What about the “growth of organism, Subculture Series 6” value ([2]; concentration 50 ppm) of the same compound?
The value was “+”.

What about the “growth of organism, Subculture Series 7” value ([2]; concentration 50 ppm) of the same compound?
The value was “+”.

What about the “growth of organism, Subculture Series 8” value ([2]; concentration 50 ppm) of the same compound?
Its value is “+”.

And the “growth of organism, Subculture Series 9” value ([2]; concentration 50 ppm)?
The value was “+”.

What about the “growth of organism, Subculture Series 10” value ([2]; concentration 50 ppm) of the same compound?
The value was “+”.

And the “growth of organism, Subculture Series 1” value ([2]; concentration 100 ppm)?
The value was 0.

What about the “growth of organism, Subculture Series 2” value ([2]; concentration 100 ppm) of the same compound?
The value was 0.

And the “growth of organism, Subculture Series 3” value ([2]; concentration 100 ppm)?
The value was 0.

And the “growth of organism, Subculture Series 4” value ([2]; concentration 100 ppm)?
The value was “+”.

And the “growth of organism, Subculture Series 5” value ([2]; concentration 100 ppm)?
Its value is “+”.

And the “growth of organism, Subculture Series 6” value ([2]; concentration 100 ppm)?
Its value is “+”.

What about the “growth of organism, Subculture Series 7” value ([2]; concentration 100 ppm) of the same compound?
The value was “+”.

What about the “growth of organism, Subculture Series 8” value ([2]; concentration 100 ppm) of the same compound?
Its value is “+”.

What about the “growth of organism, Subculture Series 9” value ([2]; concentration 100 ppm) of the same compound?
The value was “+”.

What about the “growth of organism, Subculture Series 10” value ([2]; concentration 100 ppm) of the same compound?
The value was “+”.

What about the “growth of organism, Subculture Series 1” value ([2]; concentration 200 ppm) of the same compound?
The value was 0.

And the “growth of organism, Subculture Series 2” value ([2]; concentration 200 ppm)?
The value was 0.

And the “growth of organism, Subculture Series 3” value ([2]; concentration 200 ppm)?
Its value is 0.

What about the “growth of organism, Subculture Series 4” value ([2]; concentration 200 ppm) of the same compound?
The value was 0.

And the “growth of organism, Subculture Series 5” value ([2]; concentration 200 ppm)?
The value was 0.

And the “growth of organism, Subculture Series 6” value ([2]; concentration 200 ppm)?
The value was 0.

What about the “growth of organism, Subculture Series 7” value ([2]; concentration 200 ppm) of the same compound?
Its value is “+”.

And the “growth of organism, Subculture Series 8” value ([2]; concentration 200 ppm)?
Its value is “+”.

And the “growth of organism, Subculture Series 9” value ([2]; concentration 200 ppm)?
The value was “+”.

And the “growth of organism, Subculture Series 10” value ([2]; concentration 200 ppm)?
Its value is “+”.
